Source: PMC6716272, “In Vivo and In Vitro Analyses of Novel Peptidomimetic Disruptors for the Serotonin 5-HT2C Receptor Interaction With Phosphatase and Tensin Homolog” (Frontiers in Pharmacology, 2019)

Experiments:
[1] = system: rats; settings: TAT-r3L4F 0.1 µmol/kg; ref Cunningham et al., 2011; Anastasio et al., 2013; cited from earlier work
Source text: (§1) Agonist binding to the 5-HT2CR results in dynamic changes in receptor conformation and induction of a variety of intracellular signaling pathways ([Berg et al., 1994]; [McGrew et al., 2002]; [Werry et al., 2005]; [Labasque et al., 2008]). Best characterized is coupling of the 5-HT2CR to Gαq/11 proteins to activate phospholipase Cβ (PLCβ), resulting in increased intracellular calcium (Cai ^2+) release, among various other signaling outcomes ([Millan et al., 2008]). One approach to selectively target the 5-HT2CR signaling is through protein–protein interactions that are selective for 5-HT2CR ove ...

[2] = effect mimicked by Ro-600175 and reversed by SB242084; ref Ji et al., 2006; cited from earlier work
Source text: as §1

[3] = system: WAY163909–saline-trained rats; assay: Two-lever drug discrimination, WAY163909 (0.75 mg/kg) vs saline; type: in vivo, rat
Procedure: (§2) Experimentally naïve male Sprague-Dawley rats (n = 43; Envigo, Inc.) weighing 300–325 g at the beginning of the experiment were housed two per cage in a temperature- (21–23°C) and humidity- (45–50%) controlled environment; lighting was maintained under a 12-h light–dark cycle (0700–1900 h). Rats were maintained at 80–90% of their free-feeding weights by restricting access to water. Rats received water during daily training sessions (5–6 ml/rat/session), in the afternoon several hours after training (20 min), and over the weekend (36 h). Experiments were conducted during the light phase of the light–dark cycle (between 0900 and 1200 h) and were carried out in accordance with the National Institutes of Health Guide for the Care and Use of Laboratory Animals and with the approval of the Institutional Animal Care and Use Committee at University of Texas Medical Branch.
(§3) The procedures were conducted in commercially available two-lever operant chambers (Med Associates, St. Albans, VT). Each chamber was equipped with a water-filled dispenser mounted equidistantly between two retractable response levers on the wall and housed in a light- and soundproof cubicle. Illumination came from a 28-V house light; ventilation and masking noise were provided by a ventilation fan in the right-side wall. A computer with Med-PC IV software was used to run programs and record all experimental events.
(§4) Standard two-lever, water-reinforced drug discrimination procedures were used ([Appel and Cunningham, 1986]; [Callahan and Cunningham, 1995]; [Colpaert, 1999]). Three cohorts (n = 13–16/cohort) were trained to discriminate an injection of a training drug from saline (1.0 ml/kg, i.p.) administered 15 min before start of daily (Monday–Friday) training sessions. In one cohort (n = 14), rats were trained to discriminate the training drug lorcaserin (0.75 mg/kg, 1.0 ml/kg, i.p.) from saline. In a second cohort (n = 13), rats were trained to discriminate the training drug WAY163909 (0.75 mg/kg, 1.0 ml/kg, i.p.) from saline. In the third cohort, rats (n = 16) were trained to discriminate the training drug cocaine (5 mg/kg, 1.0 ml/kg, i.p.) from saline. Two rats in the lorcaserin–saline cohort were excluded from the present study due to failure to maintain the discrimination. Rats in the WAY163909–saline cohort also participated in additional studies ([Wild et al., 2018]); the WAY163909 dose–response curve was reevaluated between studies; a washout period was allowed, and no carryover effects were observed.
(§5) During this phase, only the stimulus-appropriate (drug or saline) lever was present. Training began under a fixed ratio 1 (FR 1) schedule of water reinforcement, and the FR requirement was incremented until all animals were responding reliably under an FR 20 schedule for each experimental condition. For half of the rats, left lever responses were reinforced after training drug administration, whereas right lever responses were reinforced after saline administration; conditions were reversed for the remaining animals. During this phase of training, drug and saline were administered irregularly with the restriction that neither condition prevailed for more than three consecutive sessions.
(§6) After responding stabilized, both levers were presented simultaneously during 15-min training sessions. The rats were required to respond on the stimulus-appropriate (correct) lever to obtain water reinforcement. There were no programmed consequences for responding on the incorrect lever. This phase of training continued until the performance of all rats attained criterion (defined as mean accuracies of at least 80% stimulus-appropriate responding for 10 consecutive sessions).
(§7) Test sessions were initiated and conducted once or twice per week following attainment of criterion. Training sessions were run during the intervening days to maintain discrimination accuracy. […]

[4] = system: cocaine–saline-trained rats; assay: Two-lever drug discrimination, cocaine (5 mg/kg) vs saline; type: in vivo, rat
Procedure: as §2, §3, §4, §5, §6, §7

[5] = system: lorcaserin–saline-trained rats; assay: Two-lever drug discrimination, lorcaserin (0.75 mg/kg) vs saline; type: in vivo, rat
Procedure: as §2, §3, §4, §5, §6, §7

Ac-YGRKKRRPNPDQKPRRKKKEKR-NH2 [TAT-r3L4F, rat 5-HT2CR third-loop peptide r3L4F conjugated to TAT at the N terminus]
efficacy of a subeffective dose of WAY163909 to suppress motor activity and impulsive action [1]: enhances the efficacy | motor activity, peptide alone [1]: does not suppress motor activity on its own | ∆9-tetrahydrocannabinol-induced conditioned place preference [2]: blocks | response rate in combination with WAY163909 (0.5 mg/kg) ([3]; combination test, TAT-r3L4F 1, 2 µmol/kg i.p.): no change in response rates | drug-lever responding in combination with WAY163909 (0.5 mg/kg) ([3]; combination test, TAT-r3L4F 1, 2 µmol/kg i.p., p < 0.05): enhanced drug-lever responding | response rate in substitution test ([3]; lorcaserin 1 mg/kg (vs saline), TAT-r3L4F 1, 2 µmol/kg (vs previous WAY163909 maintenance session)): significantly higher | drug-like responding ([3]; substitution test, TAT-r3L4F 1, 2 µmol/kg i.p.): < 10% | stimulus effects of cocaine (2.5 mg/kg) and response rate, TAT-r3L4F in the absence of lorcaserin ([4]; TAT-r3L4F 1, 2 µmol/kg i.p. 45 min before test): did not alter the stimulus effects of cocaine or the associated response rate | cocaine-appropriate responding, TAT-r3L4F plus lorcaserin (0.5 mg/kg) before cocaine (2.5 mg/kg) ([4]; TAT-r3L4F 1, 2 µmol/kg, p < 0.05 vs cocaine alone, not statistically different from lorcaserin alone plus cocaine): significantly reduced cocaine-appropriate responding | lever responding in substitution test (low-dose series) ([4]; TAT-r3L4F alone 1, 2 µmol/kg, lorcaserin alone 0.5 mg/kg, data not shown): saline-appropriate responding | response rates associated with cocaine (2.5 mg/kg) ([4]; lorcaserin alone 0.5 mg/kg, or TAT-r3L4F 1, 2 µmol/kg plus lorcaserin 0.5 mg/kg, p < 0.05): significantly suppressed the response rates | response rate in substitution test (low-dose series) ([4]; vs previous cocaine maintenance session, TAT-r3L4F alone 1, 2 µmol/kg, lorcaserin alone 0.5 mg/kg, data not shown): significant reduction in response rates | drug-lever responding in combination with lorcaserin (0.5 mg/kg) ([5]; combination test, i.p., TAT-r3L4F 2 µmol/kg (p < 0.05), peptide 7 2, 5 µmol/kg): enhanced drug-lever responding | response rate in combination with lorcaserin (0.5 mg/kg) ([5]; combination test, i.p., TAT-r3L4F 2 µmol/kg, peptide 7 2, 5 µmol/kg): no change in response rates | drug-like responding ([5]; substitution test, i.p., TAT-r3L4F 1, 2 µmol/kg, peptide 7 1, 2, 5 µmol/kg (data not shown)): < 10% | response rate in substitution test ([5]; vs previous lorcaserin maintenance session, WAY163909 0.75 mg/kg, TAT-r3L4F 2 µmol/kg (trend for 1 µmol/kg)): significantly higher
